Measurements from patent US20050276764A1, “Topical use of bis-arylimidazo[1,2-a]thiolane derivatives” (Beiersdorf AG, priority 2002, published 2005).

Key:
Assay type in all cases: cell-based
3T3 cells = assay: 3T3 NRU Phototoxicity Assay (COLIPA Validation Ring Study 1997), neutral red absorption; details: for NR50 irradiated / NR50 non-irradiated: 3T3 cells, concentration at which neutral red absorption has fallen to 50% of the check value; for NR50 irradiated: UV-irradiated cultures; for NR50 non-irradiated: non-irradiated cultures; for Quotient non-irradiated/irradiated PIF: ratio of NR50 non-irradiated to irradiated, the lower the quotient, the lower the phototoxicity; for Phototoxicity in comparison to the non-oxidized comparative compound: photocytotoxicity tests, versus 4,5-bis(4-methoxyphenyl)-imidazo[1,2-a]thiolane
Experimental: The photocytotoxicity of 4,5-bis(4-methoxyphenyl)-imidazo[1,2-a]thiolane-1-oxide and 4,5-bis(4-methoxyphenyl)-imidazo[1,2-a]thiolane-1-dioxide in comparison to 4,5-bis(4-methoxyphenyl)-imidazo[1,2-a]thiolane according to standard protocol “3T3 NRU Phototoxicity Assay” of the COLIPA Validation Ring Study of 1997 is shown in FIG. 1.
In the test method used, the change to the neutral red absorption of 3T3 cells is measured by UV irradiation. Only vital cells absorb the dye, a reduced absorption thus indicates a toxicity of the test substance added. The so-called NR50 value is typically determined for evaluation, i.e. those concentrations of the test substance for which the neutral red absorption has fallen to 50% of the check value. In order to determine the phototoxicity, this value is determined for non-irradiated and irradiated cultures and put in a ratio. The lower the quotient, the lower the phototoxicity (see Table 1).

[1] = tested on: prostaglandin E2 (PGE2) production in human fibroblasts stimulated with LPS; assay: Inhibition of LPS-induced PGE2 production in human fibroblasts; details: for Inhibition of PGE2 production: human fibroblasts, LPS-stimulated, supernatant PGE2 24 hours later, FIG. 2
Experimental: The influence of 4,5-bis(4-methoxyphenyl)-imidazo[1,2-a]thiolane-1-oxide and 4,5-bis(4-Methoxyphenyl)-imidazo[1,2-a]thiolane-1-dioxide in comparison to 4,5-bis(4-methoxyphenyl)-imidazo[1,2-a]thiolane on eicosanoid production is illustrated in FIG. 2. For the samples in FIG. 2, human fibroblasts were stimulated with LPS and 24 hours later the supernatant PGE2 content was determined. Either Diclofenac with standard effects or dilutions of DKH derivatives were added to the LPS-stimulated cultures. Non-stimulated cultures and cultures only stimulated with LPS were measured as a control test.
Human fibroblasts in culture were induced to release prostaglandin E2 (PGE2) by means of lipopolysaccharide (LPS). Inhibition of this PGE2 production by imidazoles was then determined in the test.

[2] = tested on: LTB4 release by human neutrophile granulocytes stimulated with fMLP; assay: Release of LTB4 by fMLP-stimulated human neutrophile granulocytes; details: for Inhibition of LTB4 release: human neutrophile granulocytes, fMLP-stimulated, supernatant LTB4 2 hours later, FIG. 3
Experimental: A second test method was used to determine the influence of imidazoles on the release of LTB4 by stimulated granulocytes. Human neutrophile granulocytes from the peripheral blood were isolated, cultured and stimulated for LTB4 production with formylated methionyl-leucyl-phenylalanine (fMLP). Specifically, human neutrophile granulocytes were stimulated with fMLP and 2 hours later the supernatant LTB4 content was determined. Either BayX1005 with standard effects or dilutions of DKH derivatives were added to the fMLP-stimulated cultures. Non-stimulated cultures and cultures only stimulated with fMLP were measured as a control test.

Compound	NR50 irradiated (3T3 cells) [mg/L]	NR50 non-irradiated (3T3 cells) [mg/L]	Quotient non-irradiated/irradiated PIF (3T3 cells)	Production of prostaglandin E2 in fibroblasts [1]	Inhibition of PGE2 production [1]	Phototoxicity in comparison to the non-oxidized comparative compound (3T3 cells)	Production of leukotriene B4 in granulocytes [2]	Inhibition of LTB4 release [2]
COc1ccc(-c2nc3n(c2-c2ccc(OC)cc2)CCS3)cc1 [4,5-bis(4-methoxyphenyl)-imidazo[1,2-a]thiolane, reference compound]	0.177	>10	>56	–	–	–	–	–
COc1ccc(-c2nc3n(c2-c2ccc(OC)cc2)CCS3(=O)=O)cc1 [4,5-bis(4-methoxyphenyl)-imidazo[1,2-a]thiolane-1-dioxide]	7.77	>50	>6.4	considerably reduced	sufficient inhibition in the concentration range below one microgram per millimeter	considerably reduced phototoxicity	considerably reduced	improved inhibition of LTB4 release
COc1ccc(-c2nc3n(c2-c2ccc(OC)cc2)CC[S+]3[O-])cc1 (stereo not shown) [4,5-bis(4-methoxyphenyl)-imidazo[1,2-a]thiolane-1-oxide]	>42.3	>100	>2.4	considerably reduced	sufficient inhibition in the concentration range below one microgram per millimeter	considerably reduced phototoxicity	considerably reduced	improved inhibition of LTB4 release
